What was measured:
[1] = biological target: T1, GPR68 (Homo sapiens (Human), UniProt Q15743); assay: GPR68 inhibitory activity of OGM analogs (Table 5); assay type: cell-based
Method: GPCR profiling assays were performed by Millipore (St. Louis, MO) using in cells expressing Gα15, a promiscuous G protein that enhances GPCR coupling to downstream Ca2+ signaling pathways.
Since GPCRs represent >30% of targets for FDA-approved small molecules and are known to modulate cell migration, activity against 158 GPCRs was assessed based on their chemical structures. GPCRs (158) were tested for agonist and antagonist activity at 10 μM. […] Chemical segregation analysis of zebrafish phenotype was conducted to further identify the inhibitory activity responsible for the zebrafish phenotype. […] The identities of the R groups in FIG. 2B are shown below in Table 5.
(§1) Chem1-GPR68 reporter cells were treated with 20 uM OM8345 for 2 hours and then rinsed with HBSS. […] The GPR68 inhibitory activity of OGM analogs segregated with the ability of the molecule to induce the phenotype in zebrafish. Neural crest progenitors labeled with In situ hybridization of FoxD3 show normal formation of the progenitor pool.

[2] = biological target: T1, GPR68; assay: Chem-1 OGR1/GPR68 recovery assay after inhibitor washout; assay type: cell-based
Method: Chem-1 OGR1/GPR68 cells from Millipore™ (St. Louis, MO) were plated in 96-well format and stained with Fluo-8. Using the Lionheart FX (Biotek™) a baseline for 3 seconds was observed before the medium was acidified using an automated injector to reach pH 6.8. Cells then were dynamically monitored and change in fluorescence was quantified using Gen5 software (Biotek™). Pretreatment of 10 μM OGM2 for 4 hours was used. Each well was only assayed once at the correct time interval after inhibitor removal.
as §1
Additional experiments, OGM2 resynthesized and used (due to its submicromolar potency and GPR68 specificity) were performed. See FIG. 3A (HNMR of resynthesis of OGM2) and FIG. 3B (LCMS of resynthesis of OGM2). To test the possibility of OGM2 being an irreversible inhibitor, Chem1-OGR1 cells (Millipore™) were incubated with 10 μM OGM2 for 4 hours, and after removing the compound stimulated with pH 6.4 medium. […] Time till 50% max ˜52 minutes. The signal returned back towards baseline uninhibited levels in a rapid and time-dependent manner.

[3] = biological target: GPR68/OGR1 (Homo sapiens (Human), UniProt Q15743); assay: inhibition of GPR68/OGR1 in CHEM1-OGR1 cells, Fluo-8 calcium response to acidified media; assay type: cell-based; settings: acidified media pH 6.4, Fluo-8
Method: Briefly, the methods were: On the day before the assay 20,000 cells per well of CHEM1-OGR1 cells were plated in 10% DMEM containing 10% FBS and 1% Pen/Strep into a 96 well plate. After 24 hours media was removed and cells were stained with 80 uL Fluo-8 calcium indicator dye according to manufacturer's protocol. After staining cells were treated with 20 uL of 4× concentration of test compounds. Using kinetic imaging in the Lionheart HCS fluorescence intensity was continuously measure at 10 frames per second, for 5 seconds before 100 μL of acidified media was added to the well resulting in a pH of 6.4. A ratio of fluorescence intensities prior to addition and at peak were calculated and averaged. The resulting data were platted and using a 4 parameter logistic regression EC50 for each test compound was determined.

[4] = tested on: U87 glioblastoma spheroids; assay: matrix invasion of U87 spheroids in Matrigel, acidified media; assay type: cell-based
Excerpt: U87 glioblastoma spheroids were formed in low attachment round bottom plates for 3 days. Spheroids were then covered in Matrigel™, which was allowed to polymerize before treatment with acidified media with or without OGM2. Acidification increased the degree of matrix invasion which is attenuated by OGM2.

[5] = tested on: A549 lung cancer cells; assay: A549 viability (crystal violet); assay type: cell-based; settings: 24 hours
Method: A549 lung cancer cells were plated at different concentrations of cell per well in a 96-well plate. On the following day cells were treated with increasing doses of OGM2. Twenty-four hours later cells viability was assayed with crystal violet and normalized to untreated.

[6] = tested on: PANC02 pancreatic cells; assay: PANC02 scratch migration; assay type: cell-based; settings: 10 μM, 24 hours
Method: In a second study, PANC02 pancreatic cells plated and grown to confluence. Using a P200 tip, cells were denuded and allowed to migrate for 24 hours in DMSO or 10 μM OGM2 and imaged.

[7] = tested on: U87 cells; assay: U87 viability with temozolomide plus OGM2; assay type: cell-based; settings: 0.5 μM or 5 μM OGM2 with increasing TMZ
Method: U87 cells were treated with increasing concentrations of temozolomide (TMZ) without OGM2 or with 0.5 μM or 5 μM OGM2.

[8] = tested on: MeWo melanoma cell line; assay: scratch assay for migration, MeWo; assay type: cell-based, human; settings: OGM 5 μM, EIPA 10 μM, 20 hours
Method: (§2) Cells were grown to confluence and the cells were denuded with a P200 tip. A medium change was done to add fresh medium, remove loose cells and add compounds OGM (5 μM) and EIPA (10 μM). The area of the scratch was observed 20 hours later.
(§3) Since there are numerous parallels are found between neural crest cells and cancer during migration, we examined whether OGM could inhibit the migration of cells in human melanoma cell lines (Oppitz et al., 2007; Schriek et al., 2005; Sinnberg et al., 2018). […] A2058, MeWo and WM115 cells were grown to confluence and a stripe of cells were denuded with a p200 pipette tip “scratch” and rinsed with PBS. Cells were treated with OGM or EIPA, or DMSO and incubated in low serum media. Imaging was done at 30 minutes after “scratch” and then 20 hours afterwards. Areas were then measured and normalized to the initial area.
(§4) Previous studies with the MV3 melanoma cell line have shown that disruption of proton efflux with EIPA inhibition of NHE1 can also reduce melanoma motility (Ludwig et al., 2013; Schneider et al., 2009; Stock et al., 2007, 2005; Stüwe et al., 2007). […] Although the expression of GPR68 and other proton-sensing receptors have been characterized in various skin cancers (Merkel cell carcinoma, dermatofibrosarcoma protuberans, atypical fibroxanthoma, and pleomorphic dermal sarcoma), expression in melanoma cell lines has not investigated (Nassios et al., 2019).

[9] = tested on: Prostatic Neuroendocrine cancer (PNEC: PC3); assay: viability (cell titer blue), prostate cancer cells; assay type: cell-based; settings: PC3, 72 hours
Method: (§5) Multiple studies were conducted as discussed herein, but with different cancer type cohorts. Data was extracted from Gene expression omnibus using ProggeneV2. Briefly, probes were prepared using standard Affymetrix™ protocols, and hybridized to Affymetrix™ HG-U133A and HG-U133B arrays. The cohort was separated by High and low expression of GPR68 by above or below the median expression level. Survival of the cohorts was plotted in FIG. 26A. Survival of multiple cancer types including breast (MDA MB231), glioblastoma (U87), and Prostatic Neuroendocrine cancer (PNEC: PC3) is shown in FIG. 26B. Cells were plated in 96-well plates and then treated with increasing doses OGM2. Seventy-two hours later, survival was assayed with cell titer blue. Each cell line was normalized to DMSO treated control.

[10] = tested on: Spheroids; assay: pH dependent tumoroid growth; assay type: cell-based; settings: pH 6.2 vs pH 8 buffered media, 3 days
Method: Spheroids were formed over 3 days using low attachment 96-well round bottom plates and then treated with DMSO or OGM2 in either pH 8 buffered media or pH 6.2 buffered media and grown for 3 days. The size (area) of spheroids was measured in relative area units. […] This increase in growth was abrogated by OGM2.

[11] = tested on: breast (MDA MB231); assay: viability (cell titer blue), breast cancer cells; assay type: cell-based; settings: MDA MB231, 72 hours
Method: as §5

[12] = tested on: PANC02 pancreatic cells; assay: PANC02 clonogenicity (crystal violet); assay type: cell-based; settings: 7 days
Method: In a third study, PANC02 pancreatic cells were plated at 400 cells per well in a 6-well plate and on the next day were treated with increasing concentrations of OGM2 for 7 days. The plate was fixed with formalin and stained with crystal violet.

[13] = tested on: WM115 melanoma cell line; assay: scratch assay for migration, WM115; assay type: cell-based, human; settings: OGM 5 μM, EIPA 10 μM, 20 hours
Method: as §2, §3, §4

[14] = tested on: A549 lung cancer cells; assay: A549 clonogenicity (crystal violet); assay type: cell-based; settings: 8 days
Method: A549 lung cancer cells were plated at 300 cells per well in a 6-well plate and on the next day were treated with increasing concentrations of OGM2 for 8 days. The plate was fixed with formalin and stained with crystal violet. See FIG. 25B for results at the indicated concentrations.

[15] = tested on: U87 glioblastoma cells; assay: calcium release on acidification in U87 cells (Fluo-8); assay type: cell-based; settings: media pH6.4, Fluo-8
Excerpt: GPR68 is known to signal through Gq which results in a calcium flux out of the Endoplasmic reticulum. U87 glioblastoma cells were stained, using a calcium-sensitive vital dye Fluo-8, and stimulated with acidification of the media to pH6.4. The cells respond to the acidification with a burst of calcium release, this is inhibited by OGM2.

[16] = tested on: A2058 melanoma cell line; assay: scratch assay for migration, A2058; assay type: cell-based, human; settings: OGM 5 μM, EIPA 10 μM, 20 hours
Method: as §2, §3, §4

T1 sequence (Q15743 whole entry, looked up): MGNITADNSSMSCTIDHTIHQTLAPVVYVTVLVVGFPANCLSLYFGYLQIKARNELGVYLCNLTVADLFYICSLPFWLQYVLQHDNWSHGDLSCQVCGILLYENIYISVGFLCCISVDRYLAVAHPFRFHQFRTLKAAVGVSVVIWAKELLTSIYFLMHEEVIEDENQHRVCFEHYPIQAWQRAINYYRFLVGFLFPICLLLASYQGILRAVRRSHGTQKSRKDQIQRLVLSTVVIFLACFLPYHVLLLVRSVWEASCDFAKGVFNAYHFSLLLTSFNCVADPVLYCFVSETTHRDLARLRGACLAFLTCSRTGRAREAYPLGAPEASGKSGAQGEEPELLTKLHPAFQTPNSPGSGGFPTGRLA
GPR68/OGR1, sequence (Q15743 whole entry): as the sequence (Q15743 whole entry, looked up) above

IC50 [1]: 710 nM
Time till 50% max (recovery of GPR68 activity) ([2]; after 10 μM for 4 hours, washout, pH 6.4 medium): ~52 min
EC50 [3]: 1350 nM
Compound: CCc1ccc2c(c1)C1(NN=C(c3ccccc3)S1)C(=O)N2 (centres unmarked) [OGM2]
recovery of GPR68 activity after washout ([2]; 10 μM for 4 hours, then removed): restored rapidly after washout of inhibitor
degree of matrix invasion [4]: attenuated
toxicity (cell viability) [5]: relatively High doses of OGM2 are necessary for toxicity
migration [6]: significantly reduced migration
cell viability in combination with temozolomide (TMZ) [7]: synergistic result
migration in scratch assay [8]: migrated significantly less
viability [9]: Reduces Viability
increase in spheroid growth at pH 6.2 [10]: abrogated
viability [11]: Reduces Viability
clonogenicity [12]: reduced the clonogenicity
migration in scratch assay [13]: migrated significantly less
clonogenicity [14]: reduced the clonogenicity
calcium release in response to acidification [15]: inhibited
migration in scratch assay [16]: migrated significantly less
